Reference: patent US8188080B2 (Sanford-Burnham Medical Research Institute, priority 2007, dated 2012)
Read-outs that look alike come from different tables or passages of the source.

Experiments:
CD45 = target: T1, CD45 (Homo sapiens, UniProt P08575); test: PTP-catalyzed hydrolysis of DiFMUP, IC50 determination (CD45); type: biochemical
T1 sequence (P08575 26-1306): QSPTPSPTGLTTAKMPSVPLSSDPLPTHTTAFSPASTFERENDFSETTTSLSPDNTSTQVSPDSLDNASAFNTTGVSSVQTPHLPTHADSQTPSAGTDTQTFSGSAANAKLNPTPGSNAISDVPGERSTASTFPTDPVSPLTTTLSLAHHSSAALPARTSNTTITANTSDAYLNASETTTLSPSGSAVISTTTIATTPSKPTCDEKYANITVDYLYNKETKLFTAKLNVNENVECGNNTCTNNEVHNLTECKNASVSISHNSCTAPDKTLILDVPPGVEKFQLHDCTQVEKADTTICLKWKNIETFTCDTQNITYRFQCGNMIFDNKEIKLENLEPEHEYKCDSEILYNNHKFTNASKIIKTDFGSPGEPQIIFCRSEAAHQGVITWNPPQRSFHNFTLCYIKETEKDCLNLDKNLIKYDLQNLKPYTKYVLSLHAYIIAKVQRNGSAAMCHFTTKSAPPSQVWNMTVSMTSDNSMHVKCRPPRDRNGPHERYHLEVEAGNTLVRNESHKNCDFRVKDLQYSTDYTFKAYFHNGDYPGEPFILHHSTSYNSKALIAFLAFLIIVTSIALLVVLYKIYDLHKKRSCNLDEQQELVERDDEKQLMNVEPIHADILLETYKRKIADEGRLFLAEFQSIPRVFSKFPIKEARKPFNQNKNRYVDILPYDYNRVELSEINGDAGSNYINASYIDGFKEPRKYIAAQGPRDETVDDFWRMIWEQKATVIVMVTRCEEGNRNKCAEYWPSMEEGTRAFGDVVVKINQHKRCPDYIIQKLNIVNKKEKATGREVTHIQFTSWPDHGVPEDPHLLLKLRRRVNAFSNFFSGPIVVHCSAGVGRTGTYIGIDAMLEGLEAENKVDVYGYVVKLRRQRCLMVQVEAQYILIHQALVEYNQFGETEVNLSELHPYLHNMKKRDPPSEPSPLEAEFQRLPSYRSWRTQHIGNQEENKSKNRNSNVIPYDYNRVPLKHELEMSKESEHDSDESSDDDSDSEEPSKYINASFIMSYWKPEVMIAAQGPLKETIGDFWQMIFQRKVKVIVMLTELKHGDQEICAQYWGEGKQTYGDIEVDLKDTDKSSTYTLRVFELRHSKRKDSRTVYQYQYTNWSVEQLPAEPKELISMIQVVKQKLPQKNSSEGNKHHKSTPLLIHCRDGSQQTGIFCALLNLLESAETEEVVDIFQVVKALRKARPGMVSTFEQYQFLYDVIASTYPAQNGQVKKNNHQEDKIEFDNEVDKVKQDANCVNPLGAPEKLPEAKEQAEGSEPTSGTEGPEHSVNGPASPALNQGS
Description: (§1) The PTP-catalyzed hydrolysis of 6,8-difluoro-4-methylumbelliferyl phosphate (DiFMUP) in the presence of the test compound is assayed at 30° C. in a 60 μL 96 well format reaction system in 0.15 M Bis-Tris, pH 6.0 assay buffer having an ionic strength of 150 mM (adjusted with NaCl) and containing 1 mM dithiotreitol and 5% DMSO. At various concentrations of the compound, the initial rate at fixed DiFMUP concentration (equal to the corresponding Km value for each PTP) was determined using a FLx800 micro plate reader (Bio-Tek Instruments, Inc.), an excitation wave length of 360 nm and measuring the emission of the fluorescent reaction product 6,8-difluoro-7-hydroxy-4-methylcoumarin (DiFMU) at 460 nm. The nonenzymatic hydrolysis of the substrate was corrected by measuring the control without addition of enzyme. The IC50 value was determined by plotting the relative activity versus inhibitor concentrations and fitting to Equation 1 using the software GraphPad Prism™ (GraphPad Software, Inc.).
(§2) [formula] In this case, Vi, is the reaction velocity when the inhibitor concentration is [I], V0 is the reaction velocity with no inhibitor and IC50=Ki+Ki[S]/Km.

Cdc25A = target: T2, Cdc25A (Homo sapiens, UniProt P30304); test: PTP-catalyzed hydrolysis of DiFMUP, IC50 determination (Cdc25A); type: biochemical
T2 sequence (P30304 1-524): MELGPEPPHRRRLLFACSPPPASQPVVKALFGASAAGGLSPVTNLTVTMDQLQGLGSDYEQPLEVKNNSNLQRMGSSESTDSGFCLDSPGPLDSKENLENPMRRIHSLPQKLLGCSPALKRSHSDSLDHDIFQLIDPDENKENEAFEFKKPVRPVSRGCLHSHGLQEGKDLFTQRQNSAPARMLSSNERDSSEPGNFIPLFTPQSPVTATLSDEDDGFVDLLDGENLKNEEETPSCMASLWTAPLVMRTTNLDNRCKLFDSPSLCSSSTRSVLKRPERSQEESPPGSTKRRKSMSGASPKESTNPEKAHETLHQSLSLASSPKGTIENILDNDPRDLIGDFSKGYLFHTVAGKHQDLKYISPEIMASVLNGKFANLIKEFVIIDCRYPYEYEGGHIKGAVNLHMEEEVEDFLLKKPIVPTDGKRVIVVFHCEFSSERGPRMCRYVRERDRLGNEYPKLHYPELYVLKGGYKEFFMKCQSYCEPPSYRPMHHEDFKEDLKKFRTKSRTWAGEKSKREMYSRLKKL
Description: as §1, §2

[1] = Table II, DiFMUP at Km, pH 6.0, 30° C.

Compound | IC50 (CD45) [nM] | IC50 (Cdc25A) [nM] | IC50 (CD45; [1]) [nM] | IC50 (Cdc25A; [1]) [nM]
O=C1/C(=C/c2cn(-c3ccccc3)nc2-c2ccc(S(=O)(=O)N3CCOCC3)cc2)SC(=S)N1CCS(=O)(=O)O [Compound 14] | 303 | 3370 |  | 
O=C1/C(=C/c2cn(-c3ccccc3)nc2-c2ccc(OCc3ccc(Cl)cc3)cc2)SC(=S)N1CCS(=O)(=O)O [Compound 10, (Z)-2-[5-({3-[4-(4-chlorobenzyloxy)phenyl]-1-phenyl-1H-pyrazol-4-yl}methylene)-4-oxo-2-thioxothiazolidin-3-yl]ethane sulfonic acid] |  | 2450 | 460 | 
O=C1/C(=C/c2cn(-c3ccccc3)nc2-c2ccc(OCc3ccccc3)cc2)SC(=S)N1CCS(=O)(=O)O [Compound 9] |  |  | 609 | 3440
